Data from PubChem BioAssay AID248 (DTP/NCI, 2004).
Several values for one entry are separate records, joined by “and”; a condition that tells them apart may be missing. Identical values can stand only once. Inconclusive results and toxic doses are left out. Rule as the data show it: active = T/C of 150% or more; inactive = T/C below 125%.

Test system: L1210 leukemia ip in BDF1 mice, survival T/C
Assay: NCI In Vivo Anticancer Drug Screen. Data for tumor model L1210 Leukemia (intraperitoneal) in B6D2F1 (BDF1) mice
Details: endpoint: mean survival time, higher = longer survival
How it was run: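 Transplantable tumor model; survival measured in treated vs vehicle control mice. Value = treated/control.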

[1] = dose: 12.5 mg/kg/injection, schedule: Q04DX003 (ip), vehicle: saline with Tween-80
[2] = dose: 25.0 mg/kg/injection, schedule: Q04DX003 (ip), vehicle: saline with Tween-80
[3] = dose: 50.0 mg/kg/injection, schedule: Q04DX003 (ip), vehicle: saline with Tween-80
[4] = dose: 100.0 mg/kg/injection, schedule: Q04DX002 (ip), vehicle: Klucel (hydroxypropylcellulose) (HPC)
[5] = dose: 200.0 mg/kg/injection, schedule: Q04DX002 (ip), vehicle: Klucel (hydroxypropylcellulose) (HPC)
[6] = dose: 400.0 mg/kg/injection, schedule: Q04DX002 (ip), vehicle: Klucel (hydroxypropylcellulose) (HPC)
[7] = dose: 100.0 mg/kg/injection, schedule: Q01DX001 (ip), vehicle: saline
[8] = dose: 100.0 mg/kg/injection, schedule: Q04DX003 (ip), vehicle: saline
[9] = dose: 200.0 mg/kg/injection, schedule: Q01DX001 (ip), vehicle: saline
[10] = dose: 200.0 mg/kg/injection, schedule: Q04DX003 (ip), vehicle: saline
[11] = dose: 400.0 mg/kg/injection, schedule: Q01DX001 (ip), vehicle: saline
[12] = dose: 400.0 mg/kg/injection, schedule: Q04DX003 (ip), vehicle: saline
[13] = dose: 50.0 mg/kg/injection, schedule: Q01DX009 (ip), vehicle: saline with Tween-80
[14] = dose: 100.0 mg/kg/injection, schedule: Q01DX009 (ip), vehicle: saline with Tween-80
[15] = dose: 200.0 mg/kg/injection, schedule: Q01DX009 (ip), vehicle: saline with Tween-80
[16] = dose: 100.0 mg/kg/injection, schedule: Q01DX009 (ip), vehicle: Klucel (hydroxypropylcellulose) (HPC)
[17] = dose: 100.0 mg/kg/injection, schedule: Q04DX003 (ip), vehicle: Klucel (hydroxypropylcellulose) (HPC)
[18] = dose: 200.0 mg/kg/injection, schedule: Q01DX009 (ip), vehicle: Klucel (hydroxypropylcellulose) (HPC)
[19] = dose: 200.0 mg/kg/injection, schedule: Q04DX003 (ip), vehicle: Klucel (hydroxypropylcellulose) (HPC)
[20] = dose: 400.0 mg/kg/injection, schedule: Q01DX009 (ip), vehicle: Klucel (hydroxypropylcellulose) (HPC)
[21] = dose: 400.0 mg/kg/injection, schedule: Q04DX003 (ip), vehicle: Klucel (hydroxypropylcellulose) (HPC)
[22] = dose: 100.0 mg/kg/injection, schedule: Q04DX003 (ip), vehicle: saline with Tween-80
[23] = dose: 200.0 mg/kg/injection, schedule: Q04DX003 (ip), vehicle: saline with Tween-80
[24] = dose: 400.0 mg/kg/injection, schedule: Q04DX003 (ip), vehicle: saline with Tween-80

Measured: T/C

COc1cccc(/C=C/[N+](=O)[O-])c1OCc1ccccc1
inactive: [1] 117 % of control | [2] 95 % of control | [3] 111 % of control

CCCCCCCCCCCCCCCCN1CCN(CCCCCCCCCCCCCCCC)CC1
inactive: [4] 108 % of control | [5] 101 % of control | [6] 101 % of control

C1CCNNC1
inactive: [7] 104 % of control | [8] 114 % of control | [9] 98 % of control | [10] 94 % of control | [11] 95 % of control | [12] 89 % of control

C1CCCCCC(N2CCCC2)CCCCC1
inactive: dose: 6.0 mg/kg/injection, schedule: Q01DX009 (ip), vehicle: saline 107 % of control | dose: 12.0 mg/kg/injection, schedule: Q01DX009 (ip), vehicle: saline 102 % of control | dose: 12.5 mg/kg/injection, schedule: Q04DX003 (ip), vehicle: saline 100 % of control | dose: 25.0 mg/kg/injection, schedule: Q01DX009 (ip), vehicle: saline 100 % of control | dose: 25.0 mg/kg/injection, schedule: Q04DX003 (ip), vehicle: saline 95 % of control

CC12CCCCC1=CC(O)CC2 (configuration not stated)
inactive: [13] 98 % of control | [14] 91 % of control | [15] 94 % of control

O=C1CC=Nc2ccc([N+](=O)[O-])cc21
inactive: [16] 101 % of control | [17] 98 % of control | [18] 97 % of control | [19] 109 % of control | [20] 101 % of control | [21] 108 % of control

CC(=O)Nc1cccc(Br)c1
inactive: dose: 50.0 mg/kg/injection, schedule: Q01DX009 (ip), vehicle: Klucel (hydroxypropylcellulose) (HPC) 101 % of control | [16] 106 % of control and 90 % of control | [18] 95 % of control and 102 % of control

NC(N)=NNC(=O)C(=O)O
inactive: [22] 95 % of control | [23] 91 % of control | [24] 93 % of control

Cc1ccc(C)c2c1C1=C(CCCC1)S2(=O)=O
inactive: [7] 96 % of control | [9] 102 % of control | [11] 104 % of control

Nc1ccc(-c2ccc(Br)cc2)cc1
inactive: dose: 75.0 mg/kg/injection, schedule: Q01DX001 (ip), vehicle: carboxymethylcellulose (CMC) 101 % of control | dose: 150.0 mg/kg/injection, schedule: Q01DX001 (ip), vehicle: carboxymethylcellulose (CMC) 100 % of control

OCCCNc1nc2ccc(Br)cc2c2ccccc12
inactive: [16] 100 % of control | [17] 108 % of control | [18] 89 % of control | [19] 102 % of control | [20] 95 % of control | [21] 102 % of control

Nc1cc([N+](=O)[O-])cnc1NCCc1ccccc1
inactive: [22] 97 % of control | [23] 98 % of control | [24] 104 % of control

O=C(COc1ccc(Cl)c(Cl)c1)NCc1ccc([N+](=O)[O-])cc1
inactive: [17] 90 % of control | [19] 92 % of control | [21] 88 % of control

O=C(CS(=O)(=O)C/C(=N\Nc1ccc([N+](=O)[O-])cc1)c1ccccc1)c1ccccc1
inactive: [8] 101 % of control | [10] 113 % of control | [12] 104 % of control

O=C(CCCN1CCC2(CC1)C(=O)NCN2c1ccccc1)c1cccs1
inactive: dose: 3.13 mg/kg/injection, schedule: Q01DX009 (ip), vehicle: saline with Tween-80 95 % of control | dose: 6.25 mg/kg/injection, schedule: Q01DX009 (ip), vehicle: saline with Tween-80 94 % of control | dose: 6.25 mg/kg/injection, schedule: Q04DX003 (ip), vehicle: saline with Tween-80 102 % of control | dose: 12.5 mg/kg/injection, schedule: Q01DX009 (ip), vehicle: saline with Tween-80 89 % of control | [1] 95 % of control

CN(C)c1ccc(C=O)c(Br)c1
inactive: [16] 96 % of control | [17] 96 % of control | [18] 91 % of control | [19] 111 % of control | [20] 103 % of control | [21] 100 % of control

COP(=O)(OC)C(OC(=O)C(C)C)=C(C)C
inactive: [22] 112 % of control | [23] 110 % of control | [24] 102 % of control

C[N+](C)(C)CC(=O)N/N=C\c1c(O)ccc2ccccc12
inactive: [2] 97 % of control | [3] 104 % of control | [17] 100 % of control | [22] 97 % of control | [19] 93 % of control

C[As](C)N
inactive: dose: 10.0 mg/kg/injection, schedule: Q01DX001 (ip), vehicle: saline 102 % of control | dose: 15.0 mg/kg/injection, schedule: Q01DX001 (ip), vehicle: saline 93 % of control | dose: 20.0 mg/kg/injection, schedule: Q01DX001 (ip), vehicle: saline 120 % of control | dose: 30.0 mg/kg/injection, schedule: Q01DX001 (ip), vehicle: saline 91 % of control | dose: 60.0 mg/kg/injection, schedule: Q01DX001 (ip), vehicle: saline 90 % of control

N=C(N)c1ccc(-c2cc3ccc(C(=N)N)cc3s2)cc1
inactive: [1] 96 % of control | [2] 107 % of control | [3] 96 % of control

CC(=O)CC(=O)Nc1ccc(Cl)cc1
inactive: [4] 105 % of control | dose: 177.0 mg/kg/injection, schedule: Q04DX002 (ip), vehicle: Klucel (hydroxypropylcellulose) (HPC) 102 % of control | [5] 86 % of control | dose: 266.0 mg/kg/injection, schedule: Q04DX002 (ip), vehicle: Klucel (hydroxypropylcellulose) (HPC) 92 % of control | [6] 95 % of control | dose: 600.0 mg/kg/injection, schedule: Q04DX002 (ip), vehicle: Klucel (hydroxypropylcellulose) (HPC) 92 % of control

c1cc[c]([Sn]([c]2ccccc2)([c]2ccccc2)[n]2cncn2)cc1
inactive: dose: 6.25 mg/kg/injection, schedule: Q04DX002 (ip), vehicle: saline with Tween-80 101 % of control | dose: 12.5 mg/kg/injection, schedule: Q04DX002 (ip), vehicle: saline with Tween-80 93 % of control | dose: 25.0 mg/kg/injection, schedule: Q04DX002 (ip), vehicle: saline with Tween-80 112 % of control

Nc1ncnc2nncnc12
inactive: dose: 50.0 mg/kg/injection, schedule: Q01DX001 (ip), vehicle: carboxymethylcellulose (CMC) 93 % of control | dose: 100.0 mg/kg/injection, schedule: Q01DX001 (ip), vehicle: carboxymethylcellulose (CMC) 93 % of control

CC(C)C1C(C(=O)O)NC(=O)C1C(=O)O (configuration not stated)
inactive: dose: 12.0 mg/kg/injection, schedule: Q01DX009 (ip), vehicle: saline with Tween-80 106 % of control | dose: 25.0 mg/kg/injection, schedule: Q01DX009 (ip), vehicle: Klucel (hydroxypropylcellulose) (HPC) 106 % of control | dose: 25.0 mg/kg/injection, schedule: Q01DX009 (ip), vehicle: saline with Tween-80 99 % of control | [13] 97 % of control | [16] 108 % of control | [17] 96 % of control | [19] 98 % of control | [21] 95 % of control

CC[CH2][Sn]([CH2]CC)([O]S(C)(=O)=O)[O]S(C)(=O)=O
inactive: dose: 1.56 mg/kg/injection, schedule: Q01DX009 (ip), vehicle: Klucel (hydroxypropylcellulose) (HPC) 115 % of control | dose: 3.12 mg/kg/injection, schedule: Q01DX009 (ip), vehicle: Klucel (hydroxypropylcellulose) (HPC) 97 % of control

CC(C)(C)N(CSc1ccc(Cl)cc1)CSc1ccc(Cl)cc1
inactive: [7] 104 % of control | [9] 104 % of control

COc1ccc(OCC(C)=O)cc1
inactive: [14] 97 % of control | [15] 100 % of control | dose: 400.0 mg/kg/injection, schedule: Q01DX009 (ip), vehicle: saline with Tween-80 100 % of control

CN(C)N=Nc1ccc2ncccc2c1[N+](=O)[O-]
inactive: dose: 100.0 mg/kg/injection, schedule: Q01DX001 (ip), vehicle: other 105 % of control | dose: 200.0 mg/kg/injection, schedule: Q01DX001 (ip), vehicle: other 103 % of control
